Reference: patent US6737383B1, “Herbicidal oxadiazolidines” (priority 1999, dated 2004)

What was measured:
bedstraw = assay: Test B pre/postemergence bedstraw; format: in vivo, Galium aparine
Outline: (§1)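 Herbicidal effect was estimated by eye on a ten-point control scale after plants spent twelve to sixteen days in a greenhouse following soil or foliar treatment. Foliar sprays targeted plants at one to four leaves; all doses were formulated in a non-phytotoxic solvent with surfactant.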

blackgrass = assay: Test B pre/postemergence blackgrass; format: in vivo, Alopecurus myosuroides
Outline: as §1

surinam grass = assay: Test B pre/postemergence surinam grass; format: in vivo, Brachiaria decumbens
Outline: as §1

cocklebur = assay: Test B pre/postemergence cocklebur; format: in vivo, Xanthium strumarium
Outline: as §1

corn = assay: Test B pre/postemergence corn; format: in vivo, Zea mays
Outline: as §1

crabgrass = assay: Test B pre/postemergence crabgrass; format: in vivo, Digitaria sanguinalis
Outline: as §1

rape = assay: Test B pre/postemergence rape; format: in vivo, Brassica napus
Outline: as §1

soybean = assay: Test B pre/postemergence soybean; format: in vivo, Glycine max
Outline: as §1

sugar beet = assay: Test B pre/postemergence sugar beet; format: in vivo, Beta vulgaris
Outline: as §1

velvetleaf = assay: Test B pre/postemergence velvetleaf; format: in vivo, Abutilon theophrasti
Outline: as §1

wheat = assay: Test B pre/postemergence wheat; format: in vivo, Triticum aestivum
Outline: as §1

wild oat = assay: Test B pre/postemergence wild oat; format: in vivo, Avena fatua
Outline: as §1

purple nutsedge = assay: Test B pre/postemergence purple nutsedge; format: in vivo, Cyperus rotundus
Outline: as §1

rice = assay: Test B flood test rice; format: in vivo, Oryza sativa
Outline: (§2)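 Plants were grown to the 2-leaf stage before treatment with test chemical, then held in a greenhouse for twelve to sixteen days. Injury was visually rated against untreated controls on a 0–10 scale, where 0 is no effect and 10 is complete control.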

smallflower flatsedge = assay: Test B flood test smallflower flatsedge; format: in vivo, Cyperus difformis
Outline: as §2

duck salad = assay: Test B flood test duck salad; format: in vivo, Heteranthera limosa
Outline: as §2

bamyardgrass = assay: Test B flood test barnyardgrass; format: in vivo, Echinochloa crus-galli
Outline: as §2

[1] = Preemergence, Rate 62 g/ha, scale 0 to 10 (0 no effect, 10 complete control)
[2] = Preemergence, Rate 125 g/ha, 0 is no effect, 10 is complete control
[3] = Preemergence, Rate 250 g/ha, scale 0 to 10, 0 is no effect, 10 is complete control
[4] = Preemergence, Rate 500 g/ha, scale 0 to 10 (0 no effect, 10 complete control)
[5] = Postemergence, Rate 125 g/ha, scale of 0 to 10 where 0 is no effect and 10 is complete control
[6] = Rate 62 g/ha, Postemergence, scale of 0 to 10 where 0 is no effect and 10 is complete control
[7] = Rate 250 g/ha, Postemergence, scale 0 to 10, 0 is no effect, 10 is complete control
[8] = Rate 500 g/ha, Postemergence, scale 0 to 10
[9] = Postemergence, Rate 62 g/ha, scale 0 to 10, 0 is no effect, 10 is complete control
[10] = Postemergence (flood test species), Rate 125 g/ha, scale of 0 to 10 where 0 is no effect and 10 is complete control
[11] = Rate 62 g/ha, Postemergence section, flood test species, scale of 0 to 10 where 0 is no effect and 10 is complete control
[12] = Rate 250 g/ha, Postemergence (flood test), scale 0 to 10, 0 is no effect, 10 is complete control
[13] = Rate 250 g/ha, headed Pre-emergence (flood test species), scale 0 to 10 (0 no effect, 10 complete control)
[14] = Rate 500 g/ha, headed Pre-emergence (flood test species), scale 0 to 10 (0 no effect, 10 complete control)
[15] = Rate 500 g/ha, listed under Postemergence (flood test species), scale 0 to 10
[16] = Rate 1000 g/ha, Pre-emergence (as headed), scale 0 to 10
[17] = Rate 2000 g/ha, Pre-emergence (as headed), scale 0 to 10

Cc1cnn(C)c1-n1c(=O)on(C(=O)N(c2ccc(F)cc2)C(C)C)c1=O [Compound 125]
Bedstraw plant response rating (bedstraw; [1]): 0
Bedstraw plant response rating (0 to 10 scale) (bedstraw; [2]): 0
Bedstraw plant response rating (bedstraw; [3]): 0
Bedstraw plant response rating (bedstraw; [4]): 0
Bedstraw plant response rating (bedstraw; Rate 500 g/ha, Postemergence, scale 0 to 10, 0 no effect, 10 complete control): 0
Blackgrass plant response rating (blackgrass; [5]): 0
Blackgrass plant response rating (blackgrass; [1]): 0
Blackgrass plant response rating (0 to 10 scale) (blackgrass; [2]): 0
Blackgrass plant response rating (blackgrass; [4]): 0
Blackgrass plant response rating (blackgrass; [6]): 0
Plant response rating, Blackgrass (blackgrass; [7]): 0
Blackgrass plant response rating (blackgrass; [8]): 0
B. signalgrass plant response rating (surinam grass; [9]): 0
B. signalgrass plant response rating (surinam grass; [5]): 0
B. signalgrass plant response rating (surinam grass; [1]): 0
B. signalgrass plant response rating (0 to 10 scale) (surinam grass; [2]): 0
B. signalgrass plant response rating (surinam grass; [3]): 0
B. signalgrass plant response rating (surinam grass; [4]): 0
Plant response rating, B. signalgrass (surinam grass; [7]): 0
B. signalgrass plant response rating (surinam grass; Rate 500 g/ha, Postemergence, scale of 0 to 10 where 0 is no effect and 10 is complete control): 0
Cocklebur plant response rating (cocklebur; [5]): 0
Cocklebur plant response rating (cocklebur; [1]): 0
Cocklebur plant response rating (0 to 10 scale) (cocklebur; [2]): 0
Cocklebur plant response rating (cocklebur; [3]): 0
Cocklebur plant response rating (cocklebur; [4]): 0
Cocklebur plant response rating (cocklebur; [6]): 0
Plant response rating, Cocklebur (cocklebur; [7]): 0
Cocklebur plant response rating (cocklebur; [8]): 0
Corn plant response rating (corn; [5]): 0
Corn plant response rating (corn; [1]): 0
Corn plant response rating (0 to 10 scale) (corn; [2]): 0
Corn plant response rating (corn; [3]): 0
Corn plant response rating (corn; [4]): 0
Corn plant response rating (corn; [6]): 0
Plant response rating, Corn (corn; [7]): 0
Corn plant response rating (corn; [8]): 0
Crabgrass plant response rating (crabgrass; [5]): 0
Crabgrass plant response rating (crabgrass; [1]): 0
Crabgrass plant response rating (0 to 10 scale) (crabgrass; [2]): 0
Crabgrass plant response rating (crabgrass; [3]): 0
Crabgrass plant response rating (crabgrass; [4]): 0
Crabgrass plant response rating (crabgrass; [6]): 0
Plant response rating, Crabgrass (crabgrass; [7]): 0
Crabgrass plant response rating (crabgrass; [8]): 0
Rape plant response rating (rape; [5]): 0
Rape plant response rating (rape; [1]): 0
Rape plant response rating (0 to 10 scale) (rape; [2]): 0
Rape plant response rating (rape; [3]): 0
Rape plant response rating (rape; [4]): 0
Rape plant response rating (rape; [6]): 0
Plant response rating, Rape (rape; [7]): 0
Rape plant response rating (rape; [8]): 0
Soybean plant response rating (soybean; [5]): 4
Soybean plant response rating (soybean; [1]): 0
Soybean plant response rating (0 to 10 scale) (soybean; [2]): 0
Soybean plant response rating (soybean; [3]): 0
Soybean plant response rating (soybean; [4]): 0
Soybean plant response rating (soybean; [6]): 0
Plant response rating, Soybean (soybean; [7]): 4
Soybean plant response rating (soybean; [8]): 4
Sugarbeets plant response rating (sugar beet; [5]): 0
Sugarbeets plant response rating (sugar beet; [1]): 0
Sugarbeets plant response rating (0 to 10 scale) (sugar beet; [2]): 0
Sugarbeets plant response rating (sugar beet; [3]): 0
Sugarbeets plant response rating (sugar beet; [4]): 0
Sugarbeets plant response rating (sugar beet; [6]): 0
Plant response rating, Sugarbeets (sugar beet; [7]): 0
Sugarbeets plant response rating (sugar beet; [8]): 0
Velvetleaf plant response rating (velvetleaf; [5]): 0
Velvetleaf plant response rating (velvetleaf; [1]): 0
Velvetleaf plant response rating (0 to 10 scale) (velvetleaf; [2]): 0
Velvetleaf plant response rating (velvetleaf; [3]): 0
Velvetleaf plant response rating (velvetleaf; [4]): 0
Velvetleaf plant response rating (velvetleaf; [6]): 0
Plant response rating, Velvetleaf (velvetleaf; [7]): 0
Velvetleaf plant response rating (velvetleaf; [8]): 0
Wheat plant response rating (wheat; [5]): 0
Wheat plant response rating (wheat; [1]): 0
Wheat plant response rating (0 to 10 scale) (wheat; [2]): 0
Wheat plant response rating (wheat; [3]): 0
Wheat plant response rating (wheat; [4]): 0
Wheat plant response rating (wheat; [6]): 0
Plant response rating, Wheat (wheat; [7]): 0
Wheat plant response rating (wheat; [8]): 0
Wild oats plant response rating (wild oat; [5]): 0
Wild oats plant response rating (wild oat; [1]): 0
Wild oats plant response rating (0 to 10 scale) (wild oat; [2]): 0
Wild oats plant response rating (wild oat; [3]): 0
Wild oats plant response rating (wild oat; [4]): 0
Wild oats plant response rating (wild oat; [6]): 0
Plant response rating, Wild oats (wild oat; [7]): 0
Wild oats plant response rating (wild oat; [8]): 0
Nutsedge plant response rating (purple nutsedge; [5]): 0
Nutsedge plant response rating (purple nutsedge; [1]): 0
Nutsedge plant response rating (0 to 10 scale) (purple nutsedge; [2]): 0
Nutsedge plant response rating (purple nutsedge; [3]): 0
Nutsedge plant response rating (purple nutsedge; [4]): 0
Nutsedge plant response rating (purple nutsedge; [6]): 0
Plant response rating, Nutsedge (purple nutsedge; [7]): 0
Nutsedge plant response rating (purple nutsedge; [8]): 0
Rice plant response rating (rice; [10]): 0
Rice plant response rating (rice; [11]): 0
Plant response rating, Rice (rice; [12]): 0
Rice plant response rating (rice; [13]): 0
Plant response rating, Rice (rice; [14]): 0
Rice plant response rating (rice; [15]): 0
Rice plant response rating (rice; [16]): 0
Rice plant response rating (rice; [17]): 0
S. Flatsedge plant response rating (smallflower flatsedge; [10]): 0
S. Flatsedge plant response rating (smallflower flatsedge; Pre-emergence, Rate 1000 g/ha, scale 0 to 10 (0 no effect, 10 complete control)): 0
S. Flatsedge plant response rating (smallflower flatsedge; [11]): 0
Plant response rating, S. Flatsedge (smallflower flatsedge; [12]): 0
S. Flatsedge plant response rating (smallflower flatsedge; [13]): 0
Plant response rating, S. Flatsedge (smallflower flatsedge; [14]): 0
S. Flatsedge plant response rating (smallflower flatsedge; [15]): 0
S. Flatsedge plant response rating (smallflower flatsedge; [17]): 0
Ducksalad plant response rating (duck salad; [10]): 0
Ducksalad plant response rating (duck salad; [11]): 0
Plant response rating, Ducksalad (duck salad; [12]): 0
Ducksalad plant response rating (duck salad; [13]): 0
Plant response rating, Ducksalad (duck salad; [14]): 0
Ducksalad plant response rating (duck salad; [15]): 0
Ducksalad plant response rating (duck salad; [16]): 0
Ducksalad plant response rating (duck salad; [17]): 0
Barnyardgrass plant response rating (bamyardgrass; [10]): 0
Barnyardgrass plant response rating (bamyardgrass; [9]): 0
Plant response rating, Barnyardgrass (bamyardgrass; [12]): 0
Barnyardgrass plant response rating (bamyardgrass; [13]): 0
Plant response rating, Barnyardgrass (bamyardgrass; [14]): 0
Barnyardgrass plant response rating (bamyardgrass; Rate 500 g/ha, listed under Postemergence (flood test species), scale 0 to 10, 0 no effect, 10 complete control): 0
Barnyardgrass plant response rating (bamyardgrass; [16]): 0
Barnyardgrass plant response rating (bamyardgrass; Rate 2000 g/ha, Pre-emergence (as headed), scale 0 to 10, 0 no effect, 10 complete control): 0
